Assay results: publication PMC8470881, “Membrane Interactions of Latarcins: Antimicrobial Peptides from Spider Venom” (International Journal of Molecular Sciences, 2021)

What was measured:
Format in all cases: physicochemical
[1] = Solid-state 15N-NMR (helix alignment in membrane); conditions: DMPC/DMPG (7/3); for NMR: orientational state of the helix: P/L = 1:100, oriented samples, solid-state 15N-NMR, 308 K
Description: While OCD provides a rough picture of the peptide alignment, the helix tilt angle can be measured rather precisely by solid-state NMR using the same type of oriented membrane sample. […] If the peptides are not helical, then the orientation cannot be determined from these ^15N-NMR spectra (which is why CD/OCD need to be performed first), but other information may be available. Oriented NMR samples were prepared at a P/L of 1/100 in DMPC/DMPG (7/3), as for CD/OCD. The ^15N-NMR spectra of all latarcins are summarized in Figure 7, along with the corresponding ^31P-NMR spectra of the phospholipid component. […] This conclusion is supported by the vesicle leakage data above.
Ltc2a, with a chemical shift of 131 ppm, on the other hand, is distinctly tilted in the membrane, as was also observed in the OCD experiments. […] Ltc3a, with a chemical shift of 93 ppm, is tilted only slightly by 10–20°. […] Given that OCD had shown distinct signs of aggregation into β-sheets, we can conclude that Ltc6a binds to the membrane and perturbs the lipid bilayer, but it is not possible to determine the molecular alignment of Ltc6a when it has most likely formed aggregates.
Macroscopically oriented NMR samples were prepared by co-dissolving appropriate amounts of peptides and lipids (in 300 μL methanol, 100 μL CHCl3, and 10–20 μL Milli-Q water) and spreading them onto 23 thin glass plates of dimensions 9 mm × 7.5 mm × 0.08 mm (Marienfeld Laboratory Glassware, Lauda-Königshofen, Germany). The peptide-to-lipid ratio (P/L) is given in mol/mol. The plates were dried in air for 1 h, followed by drying under vacuum overnight. The plates were stacked and placed into a hydration chamber with 96% relative humidity at 48 °C for 18–24 h before wrapping the stack in parafilm and plastic foil for the NMR measurements. All solid-state NMR measurements were carried out on a Bruker Avance 500 MHz spectrometer (Bruker Biospin, Karlsruhe, Germany) at 308 K, as previously reported. The oriented membrane samples were placed in the flat-coil probe such that the lipid bilayer normal was aligned parallel to the magnetic field. ^31P-NMR was used to check the quality of the lipid orientation in the samples, using a Hahn echo sequence with phase cycling. The 90° pulse length was 3.9 µs, the echo time was 30 µs, and 17 kHz ^1H SPINAL64 decoupling was used. ^1H-^15N cross-polarization experiments using a CP-MOIST pulse sequence were performed using a double-tuned probe with a low-E flat-coil resonator (3 mm × 9 mm cross-section), employing a ^1H and ^15N radiofrequency field strength of 65 kHz during the cross-polarization and 25 kHz ^1H SPINAL16 [41] decoupling during acquisition. A mixing time of 500 μs was used, and 10,000 to 30,000 scans were accumulated. The acquisition time was 10 ms, and the recycle time was 3 s. The ^15N chemical shift was referenced using the ^1H-NMR signal of water in the sample.

[2] = Oriented circular dichroism (helix alignment in membrane); conditions: DMPC/DMPG (7/3), P/L = 1:100, oriented hydrated bilayers, 30 °C
From the text: This is the same lipid composition and peptide-to-lipid ratio as was used in conventional CD above (see Figure 2), but in contrast to the vesicular samples containing excess water, the oriented membranes for OCD are just about saturated with water.
The sign and intensity of the 208 nm band provide a characteristic signature of the helix tilt angle in the membrane [19]. For a helical peptide that lies flat on the bilayer surface, this band is the most intense.
To prepare oriented CD (OCD) samples, latarcins depending on their solubility were dissolved either in pure MeOH or CHCl3/MeOH 1/1 (v/v) and thoroughly mixed with appropriate aliquots of DMPC/DMPG solutions (7/3 molar ratio) in the same solvent. Each co-dissolved mixture with a peptide-to-lipid molar ratio of 1/100 was deposited on a quartz glass plate using a gas-tight syringe. To achieve a spot size of 12.5 mm on the 20 mm diameter plates (Suprasil QS, Hellma Optik GmbH, Jena, Germany), a volume of ~55–60 µL was used. The organic solvents were evaporated in a gentle stream of air until the sample appeared dry. The amounts of deposited lipid and peptide on the plate were always 0.29 μmole and 2.9 nmole, respectively. The peptide-lipid-film was further dried under reduced pressure for at least 3 h. Afterwards, each plate with the dried sample was fixed and sealed by a polymer O-ring in a cylindrical sample holder. The plate with the sample and a second window plate without the sample formed a compartment for controlled hydration. The holder was assembled in a custom-built hydration cell. In the inner compartment of the sample holder, the peptide-lipid film was hydrated for about 15 h at 30 °C and 97% relative humidity via the gas phase by a saturated K2SO4 solution contained in an adjacent cavity of the hydration cell. During hydration, the lipids spontaneously align as lipid bilayers that are macroscopically oriented perpendicular to the glass surface. For the measurement, the holder was transferred to an OCD sample cell that had been developed and built in-house [20]. It is computer-controlled and can be integrated into a Jasco spectropolarimeter as an accessory. The optical path runs along the cylindrical axis of the cell, i.e., normal to the quartz glass plate surface carrying the oriented lipid film. To reduce possible spectral artifacts caused by linear dichroism (LD) or linear birefringence (LB) due to imperfections in the sample, strain in the quartz glass or imperfect alignment of the windows, the OCD spectra were recorded in steps of 45° by rotation of the cell around the beam axis [19, 20]. At each angle, two scans were recorded from 260–185 nm as an average, using a scan rate of 20 nm min^−1, 4 s response time, and 1 nm bandwidth.

[3] = Circular dichroism spectroscopy (secondary structure); conditions: for % Helix (CD): CD in DMPC/DMPG (7/3) SUVs, P/L = 1:50, 10 mM phosphate buffer pH 7.0, 30 °C, peptide 29.3 μM, deconvolution with CDSSTR, CONTIN-LL, SELCON-3
From the text: Next, we compared the secondary structure of the full set of latarcins in the presence of lipid membranes, for which there are no complete data available yet.
The CD line shapes (Figure 2) were deconvoluted to estimate the secondary structure contributions (Supplementary Table S1) using the CDSSTR, CONTIN-LL, and SELCON-3 algorithms provided on the DICHROWEB online server as described previously. […] In peptides containing a high proportion of aromatic residues, such shifts of the long-wavelength band are well documented.
Small unilamellar vesicles (SUVs) for the CD measurements were prepared as follows. Weighed amounts of the lipid powders (DMPC, DMPG) were dissolved in chloroform/methanol 1/1 (v/v) to obtain 5 mg/mL stock solutions. For obtaining mixed DMPC/DMPG liposomes (7/3 molar ratio), the appropriate aliquots of these stock solutions were pipetted in a glass vial and thoroughly vortexed. The organic solvents were removed under a gentle stream of nitrogen gas, followed by 3 h of vacuum pumping in an exsiccator at a reduced pressure of 3-4 mbars to remove solvent residuals from the lipid film that had formed in the vial. The lipid film was dispersed by the addition of 10 mM phosphate buffer (PB) pH 7.0 and homogenized by vigorously vortexing for 10 × 1 min and 10 freeze–thaw cycles. SUVs were formed by sonication of the obtained multilamellar vesicles for 16 min in a strong ultrasonic bath (UTR 200, Hielscher, Germany). The temperature of the water in the ultrasonic bath was adjusted to 35 °C by circulating it through a thermostat to avoid overheating the samples. A weighed amount of the corresponding peptide was dissolved in water resulting in stock solutions with a peptide concentration of 0.5 mg/mL. For the final CD samples, each peptide stock solution was diluted to 29.3 μM and the corresponding lipid dispersion to 1.47 mM in 10 mM PB, resulting in a peptide-to-lipid (P/L) ratio of 1/50.
[…] The samples were measured in a 1-millimeter path length quartz glass cell (Suprasil, Hellma Müllheim, Germany) between 260 and 185 nm at 0.5 nm intervals. Spectra of the liposome samples were recorded at 30 °C, i.e., well above the phase transition temperature of the lipids, using a water-thermostated rectangular cell holder. Three repeat scans at a scan rate of 10 nm min^−1, 8 s response time, and 1 nm bandwidth were averaged for each sample, and the baseline spectrum of the respective peptide-free sample was subtracted from the sample spectrum. CD spectra were smoothened by a Savitzky-Golay filter (convolution width of 15 data points), which is implemented in the Jasco Spectra Analysis software.

Substance | NMR: orientational state of the helix [1] | OCD: orientational state of the helix [2] | % Helix (CD) [3] [%] | helix tilt angle away from the flat surface orientation ([1]; from 15N chemical shift, P/L 1/100) | helical fold (CD) in buffer without lipids ([3]; 10 mM phosphate buffer pH 7, no lipids, 30 °C)
H-GFFGKMKEYFKKFGASFKRRFANLKKRL-NH2 [Ltc5] | Surface | Surface | 85 |  | 
H-SWKSMAKKLKEYMEKLKQRA-NH2 [Ltc3a] | Slight tilt | Slight tilt | 87 | 10–20 ° | ca. 30%
H-QAFQTFKPDWNKIRYDAMKMQTSLGQMKKRFNL-OH [Ltc6a] | Aggregated | Aggregated | 65 |  | 
G E TF D K L K E K L K TFYQ K LV E K A ED L K G D L K A K LS-acid [Ltc7] | Surface | Surface | 89 |  | 
H-GLKDKFKSMGEKLKQYIQTWKAKF-NH2 [Ltc4a] |  |  | 94 |  | 
